The source of these data is ChEMBL document CHEMBL1201862, “PubChem BioAssay data set” (2004).

A short description of test [1]: inhibitors of PGC1a acetylation in cells, dose response, cell-based, cherry-picked samples (AID 720514).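 Also: potency may reflect raised or lowered acetylation signal.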 The test is classed as functional.
Test [2] is described as follows: Luminescence-based dose response cell-based high throughput screening assay for cytotoxic compounds using the IEC-6 intestinal epithelial cell line. [Related pubchem assays: 1858 (Summary AID.), 1825 (Counterscreen.), 1907 (Confirmation screen.)]. The test is classed as functional.
A short description of test [3]: HeLa 2N DNA content increase, dose response, cell-based, IC50 (AID 1117349). The class given is functional.
Test [4] in a line: HeLa 4N DNA content increase, dose response, cell-based, IC50 (AID 1117351). The class given is functional.
For test [5], the system named is HEK293. Nature of the test: cells. The test is classed as functional, cell-based. The note with it: Homo sapiens.
For test [6], the system named is HEK293. Nature of the test: NOD1 signaling inhibitors, primary screen, cell-based, luminescence, uHTS (AID 1578). Particulars: Homo sapiens. The test is classed as functional.
Test [7] deals with HEK293. Nature of the test: cells. The note with it: Homo sapiens.
The nature of test [8]: control 3'UTR Renilla luciferase suppression, dose response, counter-screen for Shn3 inhibitor project, cell-based, Clone20-Shn3RL, cherry-picked (AID 624133). The test is classed as functional. (A counterscreen serves to expose hits that act by an unwanted route or on another target.)
The next test deals with Tumor necrosis factor (Homo sapiens, UniProt P01375). As to the kind of experiment: TNFa-triggered NF-kB activation inhibitors, SAR follow-up, cell-based, revised (AID 2337). The test is classed as functional.
Test [9] can be described thus: Shn3 3'UTR reporter inhibitors, dose response, cell-based, Clone20 osteoblasts, firefly luciferase, cherry-picked (AID 624132).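 Also: firefly luciferase luminescence from reporter carrying the Shn3 3'UTR in osteoblasts.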 The class given is functional.
Test [10] deals with T1, COUP transcription factor 2 (Homo sapiens, UniProt P24468).
T1 sequence (P24468 whole entry): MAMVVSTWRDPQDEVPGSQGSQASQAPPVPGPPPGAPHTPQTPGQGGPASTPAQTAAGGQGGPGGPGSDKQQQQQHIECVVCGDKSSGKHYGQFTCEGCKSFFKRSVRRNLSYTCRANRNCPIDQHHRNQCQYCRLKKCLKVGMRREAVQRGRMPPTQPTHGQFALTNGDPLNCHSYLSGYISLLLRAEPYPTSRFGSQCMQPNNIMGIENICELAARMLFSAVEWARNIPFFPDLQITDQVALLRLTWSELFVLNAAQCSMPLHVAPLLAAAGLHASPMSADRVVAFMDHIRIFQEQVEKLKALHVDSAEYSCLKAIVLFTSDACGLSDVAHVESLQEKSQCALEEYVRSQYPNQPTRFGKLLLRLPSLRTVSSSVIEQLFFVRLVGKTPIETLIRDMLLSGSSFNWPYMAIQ
Nature of the test: Luminescence-based cell-based high throughput dose response assay to identify inhibitors of COUP-TFII (NR2F2). The class given is functional.

A further test deals with INS1. As to the kind of experiment: beta cell apoptosis inhibitors, cytokine rescue, dose response, luminescence, retest (AID 449756).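 Also: cell death triggered by IL-1 beta plus TNF-alpha plus IFN-gamma mixture; protective hits raise ATP signal compared with cytokine alone wells.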 The class given is functional, cell-based. The note with it: Rattus norvegicus.
Test [11] concerns the target T2, Nucleotide-binding oligomerization domain-containing protein 1 (Homo sapiens, UniProt Q9Y239).
T2 sequence (Q9Y239 whole entry): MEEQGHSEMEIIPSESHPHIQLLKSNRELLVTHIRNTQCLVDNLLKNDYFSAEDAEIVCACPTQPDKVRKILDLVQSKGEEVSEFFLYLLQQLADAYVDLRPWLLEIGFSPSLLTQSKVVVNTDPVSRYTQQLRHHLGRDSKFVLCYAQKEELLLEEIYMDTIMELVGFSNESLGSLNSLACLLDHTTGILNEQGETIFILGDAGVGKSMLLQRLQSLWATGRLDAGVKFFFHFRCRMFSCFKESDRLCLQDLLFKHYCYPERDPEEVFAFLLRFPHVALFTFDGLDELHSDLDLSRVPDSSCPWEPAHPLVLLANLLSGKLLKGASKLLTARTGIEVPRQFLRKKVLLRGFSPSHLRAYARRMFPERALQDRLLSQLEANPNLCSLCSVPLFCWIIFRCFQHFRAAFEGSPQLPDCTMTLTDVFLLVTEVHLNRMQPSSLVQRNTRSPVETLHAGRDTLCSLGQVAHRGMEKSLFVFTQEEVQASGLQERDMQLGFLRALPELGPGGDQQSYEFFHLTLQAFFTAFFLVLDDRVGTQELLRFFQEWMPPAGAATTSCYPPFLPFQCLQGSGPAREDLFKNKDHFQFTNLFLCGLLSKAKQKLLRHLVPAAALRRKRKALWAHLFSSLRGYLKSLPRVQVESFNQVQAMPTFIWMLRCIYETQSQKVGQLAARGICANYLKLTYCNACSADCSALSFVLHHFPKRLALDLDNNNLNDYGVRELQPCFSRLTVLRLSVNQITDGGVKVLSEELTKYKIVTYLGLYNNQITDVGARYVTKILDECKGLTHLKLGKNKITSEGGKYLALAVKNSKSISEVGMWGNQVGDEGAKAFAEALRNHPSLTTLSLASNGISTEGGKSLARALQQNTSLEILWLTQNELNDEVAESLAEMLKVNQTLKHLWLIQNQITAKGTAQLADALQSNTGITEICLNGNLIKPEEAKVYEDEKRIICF
As to the kind of experiment: NOD1 signaling inhibitors, SAR follow-up, revised (AID 2333). The class given is functional.

In test [12] the test system is HEK293. Nature of the test: cells. The class given is functional, cell-based. Particulars: Homo sapiens. This is another data set of the same source.
The test system of test [13] is HEK293. As to the kind of experiment: NOD2 signaling inhibitors in MDP-stimulated cells, cell-based, uHTS, luminescence (AID 2001). The class given is functional. The note with it: Homo sapiens.
Another test addresses Prothrombin (Homo sapiens, UniProt P00734). Nature of the test: Thrombin 1536 HTS Dose Response Confirmation. [Related pubchem assays: 1046 (Thrombin 1536 HTS; hits were confirmed in this assay)]. The class given is functional.
The target in test [14] is T3, Mannose-6-phosphate isomerase (Homo sapiens, UniProt P34949).
T3 sequence (P34949 whole entry): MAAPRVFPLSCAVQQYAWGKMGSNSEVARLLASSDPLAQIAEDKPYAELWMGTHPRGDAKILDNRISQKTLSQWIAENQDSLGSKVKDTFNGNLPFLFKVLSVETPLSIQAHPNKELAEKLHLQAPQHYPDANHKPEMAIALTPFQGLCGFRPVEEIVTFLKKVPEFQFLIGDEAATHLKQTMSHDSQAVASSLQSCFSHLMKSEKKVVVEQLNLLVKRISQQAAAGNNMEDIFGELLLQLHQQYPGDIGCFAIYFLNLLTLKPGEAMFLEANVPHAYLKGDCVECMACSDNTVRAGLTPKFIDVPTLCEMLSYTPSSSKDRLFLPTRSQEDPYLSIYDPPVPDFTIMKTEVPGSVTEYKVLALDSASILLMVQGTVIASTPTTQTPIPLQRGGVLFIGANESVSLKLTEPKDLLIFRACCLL
As to the kind of experiment: human PMI inhibitors, high substrate, primary screen, biochemical, fluorescence intensity, high mannose 6-phosphate (AID 1220).

The target in test [15] is T4, Short transient receptor potential channel 4 (Mus musculus, UniProt Q9QUQ5).
T4 sequence (Q9QUQ5 whole entry): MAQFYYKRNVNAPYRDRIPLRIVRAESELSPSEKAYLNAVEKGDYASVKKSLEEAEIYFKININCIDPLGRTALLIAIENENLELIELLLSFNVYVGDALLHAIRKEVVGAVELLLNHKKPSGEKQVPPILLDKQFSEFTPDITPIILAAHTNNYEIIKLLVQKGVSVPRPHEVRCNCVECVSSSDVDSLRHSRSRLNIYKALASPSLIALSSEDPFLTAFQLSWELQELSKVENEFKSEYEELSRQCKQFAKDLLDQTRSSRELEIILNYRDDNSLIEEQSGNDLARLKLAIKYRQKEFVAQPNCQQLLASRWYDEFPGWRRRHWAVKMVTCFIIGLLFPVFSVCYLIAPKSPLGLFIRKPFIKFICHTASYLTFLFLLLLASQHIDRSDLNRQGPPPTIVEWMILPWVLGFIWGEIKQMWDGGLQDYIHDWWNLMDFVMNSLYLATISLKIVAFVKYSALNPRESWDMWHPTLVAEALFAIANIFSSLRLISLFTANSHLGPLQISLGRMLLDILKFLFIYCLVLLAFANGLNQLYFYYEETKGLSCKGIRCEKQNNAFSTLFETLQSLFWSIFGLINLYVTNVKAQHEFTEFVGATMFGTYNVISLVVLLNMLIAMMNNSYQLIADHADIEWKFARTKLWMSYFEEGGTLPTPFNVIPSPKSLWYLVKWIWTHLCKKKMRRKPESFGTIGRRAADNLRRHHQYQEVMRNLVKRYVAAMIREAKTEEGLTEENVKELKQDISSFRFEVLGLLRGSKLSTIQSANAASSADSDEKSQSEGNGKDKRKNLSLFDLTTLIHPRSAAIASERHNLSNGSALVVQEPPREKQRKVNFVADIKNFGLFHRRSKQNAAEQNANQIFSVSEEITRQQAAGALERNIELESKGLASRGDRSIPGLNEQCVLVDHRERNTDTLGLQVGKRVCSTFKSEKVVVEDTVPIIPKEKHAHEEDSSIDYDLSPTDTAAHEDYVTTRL
Nature of the test: mouse TRPC4 channel inhibitors, dose response, cell-based, HEK293 TRPC4/mu-opioid, Fluo-4 calcium (AID 434942).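 Also: potency of inhibitors blocking the TRPC4 calcium response.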 The test is classed as functional.

The nature of test [16]: cytotoxicity toward NIH3T3 fibroblasts, dose response, counter-screen, cell-based, ATP luminescence, mouse fibroblasts (AID 2010).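 Also: cells exposed to compound for about 90 hours before reading.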 The test is classed as functional.
In test [17] the target is T4, Short transient receptor potential channel 4. Nature of the test: mouse TRPC4 channel activators, dose response, cell-based, HEK293 TRPC4/mu-opioid, Fluo-4 calcium (AID 434937). The test is classed as functional.
Test [18] in a line: inhibitors of intracellular T. cruzi replication, confirmation, NIH3T3 host cells, beta-gal luminescence (AID 2044).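 Also: intracellular parasites grown in NIH/3T3 mouse fibroblasts as host cells; luminescent beta-galactosidase reporter signal from transgenic T. cruzi replicating inside host cells; inhibitors lower the luminescence signal.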 The class given is functional, cell-based.
In test [19] the test system is BJ. Nature of the test: cytotoxicity toward BJ-TERT fibroblasts, dose response, cell-based, RAS-independent, luminescence (AID 1933). The class given is functional. The note with it: Homo sapiens.
Test [20] relates to BJ. As to the kind of experiment: cells. The class given is functional, cell-based. The note with it: Homo sapiens.
Test [21] relates to BJ. As to the kind of experiment: cytotoxicity toward BJ-TERT-LT-ST fibroblasts, dose response, cell-based, RAS-independent, luminescence (AID 1935).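 Also: BJ fibroblasts immortalized with TERT plus LT and ST oncogenes.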 Particulars: Homo sapiens. The class given is functional.
A short description of test [22]: cytotoxicity toward DRD oncogenic fibroblasts, dose response, cell-based, non-viral oncogenic, luminescence (AID 1934). The test is classed as functional. Particulars: Homo sapiens.
The nature of test [23]: cytotoxicity in HEK-293T cells, dose response, cytotoxicity control for TCR NF-kB inhibitor project, luminescence, T-cell screen hits (AID 489026).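 Also: cells exposed to compound about 14 hours before the viability readout.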 The class given is functional, cell-based.

Active and inactive are the calls of the source.

Chain of Tumor necrosis factor (P01375 whole entry): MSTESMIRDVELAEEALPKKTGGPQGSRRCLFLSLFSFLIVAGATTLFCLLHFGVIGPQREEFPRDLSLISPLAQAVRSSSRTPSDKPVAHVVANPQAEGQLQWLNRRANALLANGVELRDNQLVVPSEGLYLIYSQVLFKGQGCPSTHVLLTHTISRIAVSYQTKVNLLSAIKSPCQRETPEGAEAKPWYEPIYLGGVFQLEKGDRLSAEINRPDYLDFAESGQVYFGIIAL

Turning to `COc1cccc(-n2c(Cc3cc(O)nc(O)n3)nnc2SCc2cccc(C(F)(F)F)c2)c1`, in test [1], the AC50 is 35.1 µM (active).
Turning to `CN1CCC(NCCC(c2ccc(F)cc2)c2ccc(Cl)cc2)CC1` (stereo unspecified), in test [2], the IC50 was 5.34 µM (active).
Regarding `CCCCCCCCCCCCCCCCNc1ccc(C(=O)O)cc1` [CETABEN], the IC50 in test [3] and in test [4] was > 10 µM (inactive) in each case.
For the molecule `Cc1cc(C(=O)NC2CCCc3c2cnn3-c2cccc(C)c2C)n(C)n1` (stereo unspecified), the 50% inhibitory concentration (IC50) is 0.922 µM (active) with HEK293 [5]; > 20 µM (inactive) with HEK293 [7]; 0.703 µM (active) at Tumor necrosis factor; 0.628 µM (active) in test [10]; 0.289 µM (active) in [11]; > 20 µM (inactive) with HEK293 [12]. Also, in the test on HEK293 [13], the IC50 is 0.609 µM (inactive). Besides, in the test on HEK293 [6], the 50% effective concentration (EC50) is 0.17 µM (active). In addition, the AC50 in test [8] was < 0.26 µM (active); in [9], < 0.26 µM (active); with INS1 it was 0.216 µM (active).
For `CC(=O)c1sc2ccccc2c1OC(=O)c1ccco1`, the IC50 at Prothrombin was 2.17 µM (active).
As for `N#Cc1cccc(-c2ccc([C@@H]3[C@@H]4CN(Cc5ccccc5F)C[C@H]3N4)cc2)c1`, the AC50 in [1] is 8.09 µM (active).
As for `Cc1cccc(NCc2ccc(O)c3ncccc23)c1`, in test [14], the half-maximal inhibitory concentration (IC50) is listed as > 50 µM (not active).
For the molecule `CC(=O)N[C@@H](C)c1nc2ccccc2n1CCCN1CCN(c2nc(-c3ccc(C)cc3)cs2)CC1`, in test [10], the IC50 is 6.84 µM (active).
For `Cc1ccccc1Nc1nc(NCc2ccco2)c2ccccc2n1`, the EC50 in [15] is 1.06 µM (active); in test [16], > 60 µM (not active); in test [17], 5.96 µM (active); in “cells”, 0.023 µM (active); in [18], < 0.1 µM (active).
`COc1cccc(-c2nnc(SCC(=O)Nc3ccc4c(c3)OCCO4)n2Cc2ccco2)c1`: at Prothrombin, the 50% inhibitory concentration (IC50) is given as > 50 µM (not active).
Consider `Clc1ccc(-n2ncc3c(NCCN4CCOCC4)ncnc32)cc1`, for which the IC50 in test [10] is 35.7 µM (inactive).
With `CC(=O)O[C@@]12CO[C@@H]1C[C@@H](O)[C@@]1(C)C(=O)[C@H](O)C3=C(C)[C@@H](OC(=O)[C@H](O)[C@@H](NC(=O)c4ccccc4)c4ccccc4)C[C@@](O)([C@@H](OC(=O)c4ccccc4)C12)C3(C)C` (stereo partly specified), the EC50 with BJ [19] was 0.645 µM (active); in test [16] it was 5.97 µM (active); in the test with BJ [20], 44.8 µM (inconclusive); in the test “cells”, 0.022 µM (active); in test [18], < 0.1 µM (active); in the test on BJ [21], 0.434 µM (inconclusive). The EC50 in test [22] is 0.567 µM (active). Further, the half-inhibitory concentration (IC50) is 0.157 µM (active) in test [2] and > 80 µM (inactive) in test [23].
`O=C(COc1ccc(S(=O)(=O)Nc2ccccc2)cc1)N1CCOCC1`: the IC50 against Prothrombin was > 50 µM (not active).

For orientation: AC50 means the concentration at which the activity in the assay is half-maximal. Broadly, the IC50 is the midpoint of a concentration-inhibition curve. A word on the EC50: it is the midpoint of the concentration-response curve.
